Reference: patent US20050176826A1, “Use of asc-1 inhibitors to treat neurological and psychiatric disorders” (H. Lundbeck A/S, priority 2002, published 2005)

Biological target: T1, human asc-1 (Homo sapiens, UniProt Q9NS82)
T1 construct: expressed in transfected cells; host or cells: HEK293 (ATCC CRL 1573), transient, vector pCI/neo
T1 sequence (Q9NS82 1-523): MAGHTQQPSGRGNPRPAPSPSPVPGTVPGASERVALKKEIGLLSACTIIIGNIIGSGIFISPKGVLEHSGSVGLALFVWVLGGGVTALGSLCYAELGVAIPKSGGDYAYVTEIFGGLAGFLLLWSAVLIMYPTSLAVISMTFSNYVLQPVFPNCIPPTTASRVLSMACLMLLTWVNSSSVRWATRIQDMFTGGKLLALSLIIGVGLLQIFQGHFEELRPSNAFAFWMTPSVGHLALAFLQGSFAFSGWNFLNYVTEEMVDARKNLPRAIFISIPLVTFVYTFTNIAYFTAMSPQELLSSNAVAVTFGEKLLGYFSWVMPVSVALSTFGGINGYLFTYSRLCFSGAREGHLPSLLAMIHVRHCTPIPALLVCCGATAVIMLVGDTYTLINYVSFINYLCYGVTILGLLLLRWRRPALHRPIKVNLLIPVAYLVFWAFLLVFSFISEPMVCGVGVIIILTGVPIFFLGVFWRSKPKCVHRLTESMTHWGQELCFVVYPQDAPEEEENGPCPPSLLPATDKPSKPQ
Assay: [3H]D-serine uptake into HEK293 cells expressing human asc-1
Format: cell-based
Method: Uptake was determined 2-4 days after the transfection.
Into cortical membranes: Cortex from male Wistar rats (150-200 g) was homogenized in 0.40 M sucrose and centrifuged at 1000×g for 10 min. […] Test compounds and tissue (1 mg orig. tissue/well) were added to 96 well plates and incubated with [^3H]-D-serine (specific activity=26.8 Ci/mmol, PerkinElmer, Cambridge, U.K.) (100 nM final concentration) for 5 min at 25° C. Samples were filtered on Unifilter GF/B glass fiber (Packard Biosciences, Meriden, Conn., USA) and washed with 3×0.25 mL assay buffer. Measurements of [^3H]-D-serine uptake into whole HEK293 cells expressing human asc-1 were performed in 96 well plates with similar conditions except that the cells were incubated for 15 min with radioligand and washed by dipping twice in cold assay buffer following incubation with radioligand. Accumulated radioactivity was extracted from the cells by adding 200 μL scintillation fluid/well (Ultima Gold, Packard Biosciences) and the plates were counted in a Microplates Scintillation Counter (Packard Biosciences). The D-serine uptake in samples containing test compounds was compared to controls without added compound or controls where transport via the asc-1 was inhibited by addition of e.g. 30 mM L-alanine.

## CSCC(N)C(=O)O (stereo in doubt) [(S)-methyl-L-cysteine]
  Ki: 62 ± 15 µM
